Experimental data published in patent US9758459B2, “Allosteric modulators of factor XIa as anticoagulant agents” (VIRGINIA COMMONWEALTH UNIVERSITY, priority 2012, dated 2017).
Several values for one entry are separate records, joined by “and”; a condition that tells them apart may be missing. Identical values can stand only once. Like-named read-outs stand apart in the source and are kept apart here.

How the values were obtained:
[1] = system: human whole blood; assay: Thromboelastography of clot formation in whole blood; set-up: G: unit not given here
From the text: To assess the anticoagulation properties of SPGG in human whole blood, thromboelastography was employed. This technique is an ex vivo protocol often utilized to evaluate the anticoagulant activity of low molecular weight heparins (LMWHs) in whole blood.^13-16Thromboelastography monitors the thrombodynamic properties of blood as it is induced to clot under a low shear environment resembling sluggish venous flow. These thrombodynamic properties are expected to dramatically change in presence of anticoagulant in blood. The blood clot formation is recorded as a force transduced on a pin at the center of a blood-containing cup. The kinetics of clot formation and growth as well as the strength and stability of the formed clot are measured through parameters such as maximum amplitude (MA) of clot formation; shear elastic modulus strength (G) of clot; the reaction time (R) for the start of clotting; and the angle α, which is a measure of fibrin build-up and cross-linking (FIG. 8).

[2] = biological target: T1, FXIa wild type (FXIa-WT) (Homo sapiens, UniProt P03951); assay: Michaelis-Menten kinetics of S-2366 hydrolysis by full-length factor XIa; assay type: biochemical
T1 construct: made in house; host or cells: HEK-293
Experimental: (§1) Plasma FIX (500 nM) was incubated with human FXIa (3 nM) in 50 mM Hepes buffer, pH 7.4, containing 125 mM NaCl, 5 mM CaCl2, and 0.1 mg/mL bovine serum albumin at 24° C. […] The primary antibody was goat anti-human FIX polyclonal IgG (Enzyme Research Laboratories, South Bend, Tenn.), and the secondary antibody was horseradish peroxidase-conjugated anti-goat IgG. Detection was by chemiluminescence. […] The inhibition profile was determined over a range of inhibitor concentrations to determine the IC50 of the enzyme-inhibitor complex. The KM of the substrate for its enzyme was used to identify the concentration of the substrate to be used for inhibition studies. […] Active site concentrations for preparations of FXIa were determined by titrations with human antithrombin in an S-2366 cleavage assay. The reaction was monitored using a SpectraMax 340 microtiter plate reader (Molecular Devices Corp., Sunnyvale, Calif.) with a reaction volume of 100 μL and path length of 3 mm. Each assay was performed in triplicate. The concentration of S-2366 was measured using an absorption coefficient of 8,266 M-1cm-1 at λ342 nm, while the free p-nitroaniline concentration was calculated using an absorption coefficient of 9,933 M cm^−1 at λ405 nm. The data was fitted using the standard Michaelis-Menten equation to determine the KM and VMAX. Results

[3] = biological target: T2, human FXIa (Homo sapiens, UniProt P03951); assay: Inhibition of FXIa by SPGG in the presence of UFH (competition); assay type: biochemical
T2 construct: purchased Haematologic Technologies (Essex Junction, Vt.); host or cells: human plasma
Experimental: Solvent A consisted of 25 mM n-hexylamine in water containing 0.1% (v/v) formic acid, while solvent B consisted of 25 mM n-hexylamine in acetonitrile-water mixture (3:1 v/v) containing 0.1% (v/v) formic acid. […] The sample was first monitored for absorbance in the range of 190-400 nm and then directly introduced into the mass spectrometer. ESI-MS detection was performed in positive ion mode for which the capillary voltage was 4 kV, cone voltage was 20 V, desolvation temperature was 350° C. and nitrogen gas flow was maintained at 650 L/hr. Mass scans were collected in the range of 1000-2048 amu within 0.25 s and several of these added to enhanced signal-to-noise ratio. Direct Inhibition of Factor XIa. […] After 10 min incubation, 5 μL factor XIa substrate (345 μM) was rapidly added and the residual FXIa activity was measured from the initial rate of increase in absorbance at 405 nm. […] Relative residual FXIa activity at each concentration of the inhibitor was calculated from the ratio of FXIa activity in the presence and absence of the inhibitor. Logistic equation 1 was used to fit the dose-dependence of residual protease activity to obtain the potency (IC50) and efficacy (ΔY) of inhibition.
A more quantitative test of competitive binding is the Dixon-Webb relationship, which predicts the effect of an ideal competitor on a measured parameter, e.g. KD or IC50.

[4] = biological target: T3, factor IXa (Homo sapiens, UniProt P00740); assay: Factor IXa chromogenic substrate hydrolysis assay; assay type: biochemical
T3 construct: purchased Haematologic Technologies (Essex Junction, Vt.); host or cells: human plasma

[5] = biological target: T4, FXIa catalytic domain (FXIa-CD) (Homo sapiens, UniProt P03951, C500S); assay: Michaelis-Menten kinetics of S-2366 hydrolysis by FXIa catalytic domain; assay type: biochemical
T4 construct: eliminating the bond allows the catalytic domain of FXIa (FXIa-CD) to separate from the heavy chain; made in house; host or cells: HEK-293
Experimental: as §1

[6] = biological target: T5, factor XIIa (Homo sapiens, UniProt P00748); assay: Factor XIIa chromogenic substrate hydrolysis assay; assay type: biochemical
T5 construct: purchased Enzyme Research Laboratories (South Bend, Ind.)
T5 sequence (P00748 373-615 limits assumed): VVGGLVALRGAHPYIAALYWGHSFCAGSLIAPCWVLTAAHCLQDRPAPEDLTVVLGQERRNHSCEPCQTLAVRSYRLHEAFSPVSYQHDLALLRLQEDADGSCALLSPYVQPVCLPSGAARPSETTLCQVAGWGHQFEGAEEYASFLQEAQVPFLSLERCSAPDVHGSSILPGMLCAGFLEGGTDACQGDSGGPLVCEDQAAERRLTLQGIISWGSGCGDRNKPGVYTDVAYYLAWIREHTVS

T4 sequence (P03951 388-625 C500S): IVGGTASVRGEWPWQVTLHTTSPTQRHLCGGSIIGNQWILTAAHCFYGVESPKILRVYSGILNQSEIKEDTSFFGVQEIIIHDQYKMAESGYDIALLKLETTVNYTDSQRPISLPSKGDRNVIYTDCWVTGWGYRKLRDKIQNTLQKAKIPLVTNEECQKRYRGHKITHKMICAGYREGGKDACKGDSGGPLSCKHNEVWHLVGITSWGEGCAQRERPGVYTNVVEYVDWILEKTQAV
T2 sequence (P03951 19-387 limits assumed): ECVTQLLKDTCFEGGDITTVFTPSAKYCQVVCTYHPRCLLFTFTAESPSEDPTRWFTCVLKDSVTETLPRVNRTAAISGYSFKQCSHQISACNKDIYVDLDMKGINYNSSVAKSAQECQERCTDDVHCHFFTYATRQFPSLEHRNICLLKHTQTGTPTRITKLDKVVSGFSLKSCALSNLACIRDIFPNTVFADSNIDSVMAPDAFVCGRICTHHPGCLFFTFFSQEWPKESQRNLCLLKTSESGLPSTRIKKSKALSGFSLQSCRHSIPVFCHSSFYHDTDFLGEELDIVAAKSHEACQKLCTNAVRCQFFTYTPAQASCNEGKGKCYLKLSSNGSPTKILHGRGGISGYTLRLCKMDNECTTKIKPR
T2 sequence (P03951 388-625 limits assumed): as the sequence (P03951 388-625 C500S) above, with S113C counted along it
T1 sequence (P03951 19-387 limits assumed): as the sequence (P03951 19-387 limits assumed) above
T1 sequence (P03951 388-625 limits assumed): as the sequence (P03951 388-625 C500S) above, with S113C counted along it
T3 sequence (P00740 227-461 limits assumed): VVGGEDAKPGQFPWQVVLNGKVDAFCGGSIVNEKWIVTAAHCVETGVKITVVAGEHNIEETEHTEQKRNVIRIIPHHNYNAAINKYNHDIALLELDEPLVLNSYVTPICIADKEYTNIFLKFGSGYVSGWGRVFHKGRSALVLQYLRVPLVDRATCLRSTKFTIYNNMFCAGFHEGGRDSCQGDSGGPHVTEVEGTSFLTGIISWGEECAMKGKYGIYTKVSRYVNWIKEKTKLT
T3 sequence (P00740 47-191 partner limits assumed): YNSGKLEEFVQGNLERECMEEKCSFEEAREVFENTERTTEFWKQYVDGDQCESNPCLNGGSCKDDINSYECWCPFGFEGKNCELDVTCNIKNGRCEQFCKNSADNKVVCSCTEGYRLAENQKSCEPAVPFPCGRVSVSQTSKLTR

VMAX ([2]; [SPGG] 0.005 μg/mL): 93.7 ± 3.2 mAU/min | VMAX ([2]; [SPGG] 0.5 μg/mL): 74.6 ± 2.6 mAU/min | VMAX ([2]; [SPGG] 5.0 μg/mL): 32.3 ± 2.1 mAU/min | VMAX ([2]; [SPGG] 50.0 μg/mL): 17.2 mAU/min and 17.2 ± 1.2 mAU/min | VMAX ([2]; [SPGG] […]): 56.9 ± 1.5 mAU/min | HS ([3]; UFH 0 μM): 1.3 ± 0.1 | ΔY ([3]; UFH 0 μM): 97.1 ± 3.2 | IC50 ([3]; UFH 0 μM, Dixon-Webb equation, read-out: IC50, predicted (converted)): 0.689 µM | HS ([3]; UFH 3.33 μM): 1.7 ± 0.2 | ΔY ([3]; UFH 3.33 μM): 92.7 ± 6.4 | IC50 ([3]; UFH 3.33 μM, Dixon-Webb equation, read-out: IC50, predicted (converted)): 2.24 µM | IC50 ([3]; UFH 3.33 μM, pH 7.4, 37° C., read-out: IC50 (converted)): 4.02 µM | HS ([3]; UFH 33.3 μM): 4.0 ± 0.9 | ΔY ([3]; UFH 33.3 μM): 58.2 ± 6.6 | IC50 ([3]; UFH 33.3 μM, pH 7.4, 37° C., read-out: IC50 (converted)): 18 µM and 17.8 µM | IC50 ([3]; UFH […], Dixon-Webb equation, read-out: IC50, predicted (converted)): 0.747 µM | HS [4]: 2.2 ± 0.6 | IC50 [4]: 655 µM | ΔY [4]: 100.6 ± 5.8 | selectivity over factor IXa ([4]; FXIa vs factor IXa): 950 fold | decrease in VMAX ([5]; SPGG 0 to 5.0 μg/mL): ~5 fold | VMAX ([5]; [SPGG] 0.005 μg/mL): 87.0 ± 2.2 mAU/min | VMAX ([5]; [SPGG] 0.5 μg/mL): 53.9 ± 1.4 mAU/min | VMAX ([5]; [SPGG] 5.0 μg/mL): 22.6 mAU/min and 22.6 ± 1.4 mAU/min | HS [6]: 3.0 ± 1.8 | IC50 [6]: 147 µM | ΔY [6]: 55.7 ± 5.9 | selectivity over factor XIIa ([6]; FXIa vs factor XIIa): 200 fold
SMILES: O=C(OC[C@H]1O[C@@H](OC(=O)c2cc(OS(=O)(=O)O)c(O)c(OS(=O)(=O)O)c2)[C@H](OC(=O)c2cc(OS(=O)(=O)O)c(O)c(OS(=O)(=O)O)c2)[C@@H](OC(=O)c2cc(OS(=O)(=O)O)c(O)c(OS(=O)(=O)O)c2)[C@@H]1OC(=O)c1cc(OS(=O)(=O)O)c(O)c(OS(=O)(=O)O)c1)c1cc(OS(=O)(=O)O)c(O)c(OS(=O)(=O)O)c1 [SPGG, Sulfated Pentagalloylglucoside]
reduction of G ([1]; SPGG 0-280 μg/mL): ~8 fold | reduction of MA ([1]; SPGG 0-280 μg/mL): ~4 fold | G ([1]; SPGG 20 μg/mL): 8.2 × 10^3 | MA ([1]; SPGG 20 μg/mL): 62 mm | R ([1]; SPGG 20 μg/mL): 6.6 min | α ([1]; SPGG 20 μg/mL): 51.4 degs | G ([1]; SPGG 135 μg/mL): 5.0 × 10^3 | MA ([1]; SPGG 135 μg/mL): 49.8 mm | R ([1]; SPGG 135 μg/mL): 22.8 min | α ([1]; SPGG 135 μg/mL): 30.6 degs | G ([1]; SPGG 190 μg/mL): 3.8 × 10^3 | MA ([1]; SPGG 190 μg/mL): 43.5 mm | R ([1]; SPGG 190 μg/mL): 37.8 min | α ([1]; SPGG 190 μg/mL): 9.4 degs | G ([1]; SPGG 280 μg/mL): 0.9 × 10^3 | MA ([1]; SPGG 280 μg/mL): 15.1 mm | R ([1]; SPGG 280 μg/mL): 87.1 min | α ([1]; SPGG increased from 0 to 280 μg/mL): less than 9.4 °
